Results taken from the supplement of paper PMC10307832.

Experiments:
Experiment in all cases: relative viability (nuclei count vs DMSO), 5 days (fraction); higher = more cells survive
AZ3146 + Bortezomib = compound: CN1CCC(CC1)OC2=CC(=C(C=C2)NC3=NC=C4C(=N3)N(C(=O)N4C)C5CCCC5)OC [AZ3146] + CC(C)C[C@H](NC(=O)[C@H](Cc1ccccc1)NC(=O)c1cnccn1)B(O)O [Bortezomib] (partner 0.002 µM)
In short: (§1)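 Cells from lung cancer lines were seeded into 1536-well plates and, one day later, dosed by pin tool. Treatments were either a single drug or a fixed dose of an anchor drug with five library-drug doses (not always all listed) in √10 steps. After 5 days, nuclei were stained in a one-step fixation (final 0.05% Triton X-100, 1% formaldehyde, 1 ug/ml Hoechst) and counted on 4× images, and relative viability is the treated-to-vehicle nuclei ratio, as the median of duplicate plates.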

GSK-J4 + Bortezomib = compound: CCOC(=O)CCNc1cc(N2CCc3ccccc3CC2)nc(-c2ccccn2)n1 [GSK-J4] + CC(C)C[C@H](NC(=O)[C@H](Cc1ccccc1)NC(=O)c1cnccn1)B(O)O [Bortezomib] (partner 0.002 µM)
In short: as §1

AZ3146 + AZD7762 = compound: CN1CCC(CC1)OC2=CC(=C(C=C2)NC3=NC=C4C(=N3)N(C(=O)N4C)C5CCCC5)OC [AZ3146] + NC(=O)Nc1cc(-c2cccc(F)c2)sc1C(=O)N[C@H]1CCCNC1 [AZD7762] (partner 0.2 µM)
In short: as §1

GSK-J4 + Crizotinib = compound: CCOC(=O)CCNc1cc(N2CCc3ccccc3CC2)nc(-c2ccccn2)n1 [GSK-J4] + C[C@@H](Oc1cc(-c2cnn(C3CCNCC3)c2)cnc1N)c1c(Cl)ccc(F)c1Cl [Crizotinib] (partner 1 µM)
In short: as §1

Cell Line | relative viability (AZ3146 + Bortezomib; first compound 0.08 µM) | relative viability (AZ3146 + Bortezomib; first compound 0.253 µM) | relative viability (AZ3146 + Bortezomib; first compound 0.8 µM) | relative viability (AZ3146 + Bortezomib; first compound 2.53 µM) | relative viability (AZ3146 + Bortezomib; first compound 8 µM) | relative viability (GSK-J4 + Bortezomib; first compound 0.5 µM) | relative viability (GSK-J4 + Bortezomib; first compound 1.581 µM) | relative viability (GSK-J4 + Bortezomib; first compound 5 µM) | relative viability (GSK-J4 + Bortezomib; first compound 15.81 µM) | relative viability (GSK-J4 + Bortezomib; first compound 50 µM) | relative viability (AZ3146 + AZD7762; first compound 0.08 µM) | relative viability (AZ3146 + AZD7762; first compound 0.253 µM) | relative viability (AZ3146 + AZD7762; first compound 0.8 µM) | relative viability (AZ3146 + AZD7762; first compound 2.53 µM) | relative viability (AZ3146 + AZD7762; first compound 8 µM) | relative viability (GSK-J4 + Crizotinib; first compound 0.5 µM) | relative viability (GSK-J4 + Crizotinib; first compound 1.581 µM) | relative viability (GSK-J4 + Crizotinib; first compound 5 µM) | relative viability (GSK-J4 + Crizotinib; first compound 15.81 µM) | relative viability (GSK-J4 + Crizotinib; first compound 50 µM)
NCI-H441 | 0.394 | 0.743 | 0.602 | 1.02 | 0.346 | 0.749 | 0.497 | 0.401 | 0.538 | 0.348 | 1.08 | 1.31 | 1.14 | 1.09 | 0.949 | 0.74 | 0.574 | 0.643 | 0.697 | 0.775
NCI-H2009 | 0.824 | 1.08 | 1.05 | 1.04 | 0.636 | 0.837 | 0.329 | 0.58 | 0.962 | 0.398 |  |  |  |  |  | 0.955 | 1 | 0.77 | 1.05 | 0.789
NCI-H2170 |  |  |  |  |  |  |  |  |  |  | 0.85 | 0.889 | 0.871 | 0.814 | 0.713 | 1.09 | 1.14 | 1.19 | 1.09 | 1.11
NCI-H1299 | 0.965 | 0.965 | 1.05 | 1.01 | 1.01 | 1.06 | 0.94 | 0.876 | 0.98 | 0.985 |  |  |  |  |  | 0.984 | 0.91 | 0.873 | 0.937 | 0.923
HCC-78 |  | 0.471 | 0.271 | 0.558 | 0.447 | 0.442 | 0.509 | 0.565 | 0.422 | 0.491 |  | 0.577 | 0.57 | 0.53 | 0.717 | 0.346 | 0.297 | 0.378 |  | 0.354
NCI-H3122 | 1.08 | 1 | 0.997 | 0.999 | 1.07 | 0.938 | 0.982 | 0.986 | 1.02 | 0.993 | 1.01 | 0.933 | 0.966 | 1.06 | 0.973 | 0.287 | 0.275 | 0.27 | 0.243 | 0.283
NCI-H2085 | 1 | 1.09 | 0.962 | 1.18 | 0.952 | 0.949 | 0.927 | 0.857 | 1.09 | 1 | 0.912 | 0.974 | 0.95 | 1.04 | 0.708 | 0.839 | 0.609 | 0.617 | 0.794 | 0.906
HCC-366 | 0.983 | 1.05 | 1.08 | 1.06 | 0.735 | 1 | 1.02 |  | 1.01 | 0.96 | 0.212 | 0.288 | 0.263 | 0.203 | 0.112 | 0.523 | 0.405 |  | 0.395 | 0.445
HCC-827 | 0.933 | 1.07 | 1.11 | 1.09 | 1.09 | 1.02 | 0.95 | 0.883 | 1.11 | 1.04 | 0.154 | 0.17 | 0.188 | 0.212 | 0.213 | 0.963 | 0.931 | 0.933 | 0.91 | 0.848
Calu-6 | 0.975 | 1.08 | 0.999 | 0.938 | 0.57 | 0.884 | 0.912 | 1.08 | 1.13 | 0.898 |  |  |  |  |  | 0.726 | 0.618 | 0.828 | 0.76 | 0.685
NCI-H2228 | 0.904 | 1.03 | 1.04 | 1.18 | 0.953 | 0.745 | 0.913 | 0.973 | 0.906 | 0.937 |  |  |  |  |  | 0.609 | 0.345 | 0.497 | 0.535 | 0.423
NCI-H1793 |  |  |  |  |  |  |  |  |  |  | 0.259 | 0.397 | 0.259 | 0.229 | 0.178 |  |  |  |  | 
COR-L23 | 0.912 | 1.17 | 0.991 | 0.984 | 0.886 | 0.944 | 0.815 |  | 1.01 | 0.729 |  |  |  |  |  | 0.671 | 0.567 |  | 0.639 | 0.518
NCI-H1563 | 0.703 | 0.82 | 0.826 | 1.01 | 0.77 | 0.809 | 0.952 | 0.776 | 0.66 | 0.808 |  |  |  |  |  | 0.888 | 0.779 | 0.684 | 0.837 | 0.857
NCI-H2023 | 0.938 | 1.05 | 1.03 | 0.997 | 0.268 | 0.912 | 0.71 | 0.878 | 0.799 | 0.801 |  |  |  |  |  | 0.542 | 0.621 | 0.678 | 0.597 | 0.654
EBC-1 | 0.549 | 0.578 | 0.541 | 0.521 | 0.279 | 0.436 | 0.526 | 0.441 | 0.61 | 0.346 |  |  |  |  |  | 0.191 | 0.206 | 0.192 | 0.212 | 0.19
NCI-H1650 | 0.204 | 0.226 | 0.205 | 0.168 | 0.2 | 0.17 | 0.164 | 0.219 | 0.174 | 0.232 |  |  |  |  |  | 0.847 | 0.962 | 0.862 | 0.935 | 0.721
NCI-H1648 |  |  |  |  |  |  |  |  |  |  |  |  | 0.863 | 0.757 | 0.624 |  |  |  |  | 
A549 |  |  |  |  |  |  |  |  |  |  |  |  |  |  |  | 0.691 | 0.669 |  | 0.536 | 0.605
NCI-H522 |  |  |  |  |  |  |  |  |  |  | 0.803 | 0.57 | 0.807 | 0.698 | 0.577 |  |  |  |  | 
NCI-H358 |  |  |  |  |  |  |  |  |  |  | 0.346 | 0.469 | 0.363 | 0.581 | 0.313 | 0.643 | 0.579 | 0.537 | 0.55 | 0.589
SW 900 |  |  |  |  |  |  |  |  |  |  | 0.527 |  | 0.59 | 0.767 | 0.519 |  |  |  |  | 
NCI-H1395 |  |  |  |  |  |  |  |  |  |  | 0.352 | 0.389 |  | 0.379 | 0.4 |  |  |  |  | 
SK-MES-1 |  |  |  |  |  |  |  |  |  |  |  |  |  |  |  | 0.987 | 0.977 | 0.724 | 0.939 | 0.942
COR-L 105 | 0.677 | 0.896 | 0.78 | 0.554 | 0.294 | 0.851 | 0.521 | 0.605 | 0.734 | 0.856 |  |  |  |  |  | 0.843 | 0.7 | 0.547 | 0.749 | 0.695
